In the NIST ThermoML archive (doi:10.1021/je300737t):

How the values were obtained:
[1] = 101 kPa, Liquid; for mass density: Pycnometric method
[2] = xn = mol fraction of the nth substance listed; settings: 101 kPa, Liquid; for mass density: Pycnometric method

CCCCOCCO [2-butoxyethan-1-ol]
[1]
Settings | mass density [kg/m3] | viscosity [mPa·s]
298.15 K | 896.16 | 2.782
303.15 K | 892.74 | 2.499
308.15 K | 888.88 | 2.206
313.15 K | 884.29 | 1.946

CCCCOCCO [2-butoxyethan-1-ol] + O
[2]
Settings | mass density, 298.15 K [kg/m3] | mass density, 303.15 K [kg/m3] | mass density, 308.15 K [kg/m3] | mass density, 313.15 K [kg/m3] | viscosity, 298.15 K [mPa·s] | viscosity, 303.15 K [mPa·s] | viscosity, 308.15 K [mPa·s] | viscosity, 313.15 K [mPa·s]
x1 = 0.017 | 993.26 | 990.82 | 988.89 | 985.94 | 1.284 | 1.131 | 0.9936 | 0.8871
x1 = 0.037 | 986.46 | 982.92 | 980.38 | 977.64 | 1.849 | 1.622 | 1.465 | 1.302
x1 = 0.061 | 976.33 | 974.23 | 971.37 | 968.64 | 2.45 | 2.161 | 1.916 | 1.754
x1 = 0.092 | 967.1 | 964.31 | 961.45 | 958.48 | 2.998 | 2.635 | 2.334 | 2.054
x1 = 0.132 | 948.1 | 944.74 | 941.59 | 937.57 | 3.918 | 3.394 | 2.921 | 2.539
x1 = 1 | 896.16 | 892.74 | 888.88 | 884.29 | 2.782 | 2.499 | 2.206 | 1.946
